The results in this text go back to US5663331A, “Cephalosporin compounds” (Il-Dong Pharm. Co., Ltd., priority 1992, dated 1997).

Common to all, as to assay type: cell-based
Test [1] relates to Esherichia coli ATCC 25922. Kind of test: MIC, two-fold dilution method, Esherichia coli ATCC 25922. To be noted: Muller Hinton Broth, 10^6 CFU per ml, 37° C., 18 to 20 hours; for MIC: read-out: Antibacterial Activity (MIC). As to the method: (§1) In order to illustrate the usefulness of the invented compounds, the minimal inhibitory concentrations-(MIC) thereof against standard strains were determined and compared with Cefotaxime, a known compound. Also, the in vitro antibacterial activity was determined by a two-fold dilution method as described below: That is, the two-fold serial dilutions of the compound were made and dispersed in Muller Hinton Broth medium. Standard test strain which had the 10^6 CFU per ml was inoculated on the medium, and was incubated at 37° C. for 18 to 20 hours.

Test [2] relates to Streptococcus faecalis ATCC 10541. Briefly: MIC, two-fold dilution method, Streptococcus faecalis ATCC 10541. To be noted: 10^6 CFU per ml, 37° C., 18 to 20 hours; for MIC: Enterococcus faecalis, ATCC10541, Muller Hinton Broth, read-out: Antibacterial Activity (MIC); for Antibacterial Activity (MIC): Muller Hinton Broth. As to the method:
as §1

Test [3] relates to Bacillus subtilis ATCC 6633. Kind of test: MIC, two-fold dilution method, Bacillus subtilis ATCC 6633. To be noted: 10^6 CFU per ml, 37° C., 18 to 20 hours; for MIC: ATCC6633, Muller Hinton Broth, read-out: Antibacterial Activity (MIC); for Antibacterial Activity (MIC): Muller Hinton Broth. As to the method:
as §1

In test [4] the test system is Staphylococcus epidermidis ATCC 12228. Kind of test: MIC, two-fold dilution method, Staphylococcus epidermidis ATCC 12228. Particulars: 10^6 CFU per ml, 37° C., 18 to 20 hours; for MIC: ATCC12228, Muller Hinton Broth, read-out: Antibacterial Activity (MIC); for Antibacterial Activity (MIC): Muller Hinton Broth. As to the method:
as §1

Test [5] concerns Pseudomonas aeurginosa NCTC 10490. Kind of test: MIC, two-fold dilution method, Pseudomonas aeurginosa NCTC 10490. To be noted: 10^6 CFU per ml, 37° C., 18 to 20 hours; for MIC: NCTC10490, Muller Hinton Broth, read-out: Antibacterial Activity (MIC); for Antibacterial Activity (MIC): Muller Hinton Broth. As to the method:
as §1

For test [6], the system named is Staphylococcus aureus ATCC 65389. Kind of test: MIC, two-fold dilution method, Staphylococcus aureus ATCC 65389. To be noted: 10^6 CFU per ml, 37° C., 18 to 20 hours; for MIC: ATCC65389, Muller Hinton Broth, read-out: Antibacterial Activity (MIC); for Antibacterial Activity (MIC): Muller Hinton Broth. Here is the method:
as §1

In test [7] the test system is Klebsiella pneumoniae ATCC 10031. Kind of test: MIC, two-fold dilution method, Klebsiella pneumoniae ATCC 10031. Particulars: 10^6 CFU per ml, 37° C., 18 to 20 hours; for MIC: ATCC10031, Muller Hinton Broth, read-out: Antibacterial Activity (MIC); for Antibacterial Activity (MIC): Muller Hinton Broth. Here is the method:
as §1

SMILES strings stand for the structures. In brackets after ≈: the same amount, converted by molar mass.

Usually MIC stands for the lowest concentration found to suppress growth. Take `CN1CCN(c2cc3c(cc2F)c(SCC2=C(C(=O)[O-])N4C(=O)C(NC(=O)/C(=N\OC(C)(C)C(=O)O)c5csc(N)n5)C4SC2)cc[n+]3C)CC1` (stereo not shown) [Compound I-54, 7-[(Z)-2-(2-aminothiazol-4-yl)-2-(2-carboxyprop-2-oxyimino)acetamido]-3-[1-methyl-6-fluoro-7-(N-methylpiperazinyl)quinolinium-4-yl]thiomethyl-3-cephem-4-carboxylate]: the minimum inhibitory concentration (MIC) in test [1] came to 6.25 µg/mL (≈ 8.24 µM); in test [2] it was 1.56 µg/mL (≈ 2.06 µM); in test [3], 0.78 µg/mL (≈ 1.03 µM); in test [4], 3.13 µg/mL (≈ 4.12 µM); in test [5], 3.13 µg/mL (≈ 4.12 µM); in test [6], 6.25 µg/mL (≈ 8.24 µM). In addition, the MIC in test [7] came to 3.13 µg/mL (≈ 4.12 µM).

`CO/N=C(\C(=O)NC1C(=O)N2C(C(=O)[O-])=C(CSc3cc[n+](C4CC4)c4cc(N5CCN(C)CC5)c(F)cc34)CSC12)c1csc(N)n1` (stereo not shown) [Compound I-6, 7-[(Z)-2-(2-aminothiazol-4-yl)-2-(methoxyimino)acetamido]-3-[1-cyclopropyl-6-fluoro-7-(N-methylpiperazinyl)quinolinium-4-yl]thiomethyl-3-cephem-4-carboxylate]: the MIC was 12.5 µg/mL (≈ 17.5 µM) in test [1]; 0.2 µg/mL (≈ 0.281 µM) in test [2]; 0.39 µg/mL (≈ 0.547 µM) in test [3]; 0.39 µg/mL (≈ 0.547 µM) in test [4]; 1.56 µg/mL (≈ 2.19 µM) in test [5]; 0.39 µg/mL (≈ 0.547 µM) in test [6]. The minimal inhibitory concentration (MIC) in test [7] was determined as 0.1 µg/mL (≈ 0.14 µM).

Take `C#CCO/N=C(\C(=O)NC1C(=O)N2C(C(=O)[O-])=C(CSc3cc[n+](CC)c4cc(N5CCNCC5)c(F)cc34)CS[C@H]12)c1csc(N)n1` (stereo partly shown) [Compound I-45, 7-[(Z)-2-(2-aminothiazol-4-yl)-2-(propargyloxyimino)acetamido]-3-(1-ethyl-6-fluoro-7-piperazinylquinolinium-4-yl)thiomethyl-3-cephem-4-carboxylate]: the minimum inhibitory concentration (MIC) was 3.13 µg/mL (≈ 4.4 µM) in test [1]; 0.39 µg/mL (≈ 0.549 µM) in test [2]; 0.1 µg/mL (≈ 0.141 µM) in test [3]; 0.78 µg/mL (≈ 1.1 µM) in test [4]; 1.56 µg/mL (≈ 2.19 µM) in test [5]; 0.2 µg/mL (≈ 0.281 µM) in test [6]. The MIC in test [7] stood at 0.78 µg/mL (≈ 1.1 µM).

For `C=CCO/N=C(\C(=O)NC1C(=O)N2C(C(=O)[O-])=C(CSc3cc[n+](CC)c4cc(N5CCN(CC)CC5)c(F)cc34)CSC12)c1csc(N)n1` (stereo not shown) [Compound I-31], the MIC in test [1] was 0.78 µg/mL (≈ 1.05 µM); in test [2], 0.39 µg/mL (≈ 0.526 µM); in test [3] it was 0.2 µg/mL (≈ 0.27 µM); in test [4] it was 0.78 µg/mL (≈ 1.05 µM); in test [5] it was 0.78 µg/mL (≈ 1.05 µM); in test [6], 0.39 µg/mL (≈ 0.526 µM). For the same compound, the MIC in test [7] amounted to 0.39 µg/mL (≈ 0.526 µM).

Consider `CC[n+]1ccc(SCC2=C(C(=O)[O-])N3C(=O)C(NC(=O)/C(=N\OC)c4csc(N)n4)C3SC2)c2cc(F)c(N3CCN(C)CC3)cc21` (stereo not shown) [Compound I-10, 7-[(Z)-2-(2-aminothiazol-4-yl)-2-(methoxyimino)acetamido]-3-(1-ethyl-6-fluoro-7-(N-methylpiperazinyl)quinolinium-4-yl]thiomethyl-3-cephem-4-carboxylate], for which the MIC in test [1] is 12.5 µg/mL (≈ 17.8 µM); in test [2] it was 1.56 µg/mL (≈ 2.23 µM); in test [3] it was 0.39 µg/mL (≈ 0.556 µM); in test [4], 1.56 µg/mL (≈ 2.23 µM); in test [5] it was 6.25 µg/mL (≈ 8.92 µM); in test [6] it was 0.39 µg/mL (≈ 0.556 µM). For the same compound, the MIC in test [7] worked out at 0.78 µg/mL (≈ 1.11 µM).

Consider `CO/N=C(\C(=O)NC1C(=O)N2C(C(=O)[O-])=C(CSc3cc[n+](C4CC4)c4cc(N5CCNCC5C)c(F)cc34)CS[C@H]12)c1csc(N)n1` (stereo partly shown) [Compound I-8, 7-[(Z)-2-(2-aminothiazol-4-yl)-2-(methoxyimino)acetamido]-3-[1-cyclopropyl-6-fluoro-7-(2-methylpiperazinyl)quinolinium-4-yl]thiomethyl-3-cephem-4-carboxylate], for which the “Antibacterial Activity (MIC)” value in test [1] was 0.78 µg/mL; in test [2], 0.2 µg/mL; in test [3] it was 0.2 µg/mL; in test [4], 0.2 µg/mL; in test [5] it was 0.39 µg/mL; in test [6] it was 0.39 µg/mL. In addition, the “Antibacterial Activity (MIC)” value in test [7] was determined as 0.05 µg/mL.

Take `CCN1CCN(c2cc3c(cc2F)c(SCC2=C(C(=O)[O-])N4C(=O)C(NC(=O)/C(=N\OC(C)(C)C(=O)O)c5csc(N)n5)C4SC2)cc[n+]3CC)CC1` (stereo not shown) [Compound I-61, 7-[(Z)-2-(2-aminothiazol-4-yl)-2-(2-carboxyprop-2-oxyimino)acetamido]-3-[1-ethyl-6-fluoro-7-(1-ethylpiperazinyl)quinolinium-4-yl]thiomethyl-3-cephem-4-carboxylate]: the MIC in test [1] was 3.13 µg/mL (≈ 3.98 µM); in test [2], 0.39 µg/mL (≈ 0.496 µM); in test [3], 3.13 µg/mL (≈ 3.98 µM); in test [4], 1.56 µg/mL (≈ 1.98 µM); in test [5], 1.56 µg/mL (≈ 1.98 µM); in test [6], 1.56 µg/mL (≈ 1.98 µM). Besides, the MIC in test [7] amounted to 3.13 µg/mL (≈ 3.98 µM).

In the case of `CO/N=C(\C(=O)N[C@@H]1C(=O)N2C(C(=O)O)=C(COC(C)=O)CS[C@H]12)c1csc(N)n1` [CTX, Cefotaxime, reference compound], the MIC in test [1] came out at 0.78 µg/mL (≈ 1.71 µM); in test [2] it was 0.39 µg/mL (≈ 0.856 µM); in test [3], 0.2 µg/mL (≈ 0.439 µM); in test [4], 0.78 µg/mL (≈ 1.71 µM); in test [5] it was 1.56 µg/mL (≈ 3.43 µM); in test [6], 0.78 µg/mL (≈ 1.71 µM). Moreover, the minimum inhibitory concentration (MIC) in test [7] came out at 0.39 µg/mL (≈ 0.856 µM).

Turning to `C#CCO/N=C(\C(=O)NC1C(=O)N2C(C(=O)[O-])=C(CSc3cc[n+](CC)c4cc(N5CCN(CC)CC5)c(F)cc34)CSC12)c1csc(N)n1` (stereo not shown) [Compound I-47, 7-[(Z)-2-(2-aminothiazol-4-yl)-2-(propargyloxyimino)acetamido]-3-[1-ethyl-6-fluoro-7-(1-ethylpiperazinyl)quinolinium-4-yl]thiomethyl-3-cephem-4-carboxylate], the MIC in test [1] is 6.25 µg/mL (≈ 8.46 µM); in test [2], 0.1 µg/mL (≈ 0.135 µM); in test [3], 0.2 µg/mL (≈ 0.271 µM); in test [4], 0.78 µg/mL (≈ 1.06 µM); in test [5], 1.56 µg/mL (≈ 2.11 µM); in test [6] it was 0.2 µg/mL (≈ 0.271 µM). In addition, the minimal inhibitory concentration (MIC) in test [7] worked out at 1.56 µg/mL (≈ 2.11 µM).

On to `C=CC[n+]1ccc(SCC2=C(C(=O)[O-])N3C(=O)C(NC(=O)/C(=N\OC)c4csc(N)n4)C3SC2)c2cc(F)c(N3CCN(C)CC3)cc21` (stereo not shown) [Compound I-14, 7-[(Z)-2-(2-aminothiazol-4-yl)-2-(methoxyimino)acetamido]-3-[1-allyl-6-fluoro-7-(N-methylpiperazinyl)quinolinium-4-yl]thiomethyl-3-cephem-4-carboxylate], for which the MIC in test [1] was determined as 3.13 µg/mL (≈ 4.39 µM); in test [2], 0.2 µg/mL (≈ 0.281 µM); in test [3] it was 0.1 µg/mL (≈ 0.14 µM); in test [4], 0.39 µg/mL (≈ 0.547 µM); in test [5], 3.13 µg/mL (≈ 4.39 µM); in test [6], 0.78 µg/mL (≈ 1.09 µM). Besides, the minimum inhibitory concentration (MIC) in test [7] came to 1.56 µg/mL (≈ 2.19 µM).

For `Cc1cn(-c2cc3c(cc2F)c(SCC2=C(C(=O)[O-])N4C(=O)C(NC(=O)/C(=N\OC(C)(C)C(=O)O)c5csc(N)n5)[C@H]4SC2)cc[n+]3C2CC2)cn1` (stereo partly shown) [Compound I-68, 7-[(Z)-2-(2-aminothiazol-4-yl)-2-(2-carboxyprop-2-oxyimino)acetamido]-3-[1-cyclopropyl-6-fluoro-7-(4-methylimidazolyl)quinolinium-4-yl]thiomethyl-3-cephem-4-carboxylate], the “Antibacterial Activity (MIC)” value in test [1] amounted to 1.56 µg/mL; in test [2], 0.2 µg/mL; in test [3], 0.78 µg/mL; in test [4], 1.56 µg/mL; in test [5], 0.78 µg/mL; in test [6], 1.56 µg/mL. Also, in test [7], the “Antibacterial Activity (MIC)” value was found to be 0.78 µg/mL.

Regarding `C=CCO/N=C(\C(=O)NC1C(=O)N2C(C(=O)[O-])=C(CSc3cc[n+](C4CC4)c4cc(N5CCN(C)CC5)c(F)cc34)CSC12)c1csc(N)n1` (stereo not shown) [Compound I-26, 7-[(Z)-2-(2-aminothiazol-4-yl)-2-(allyloxyimino)acetamido]-3-[1-cyclopropyl-6-fluoro-7-(N-methylpiperazinyl)quinolinium-4-yl]thiomethyl-3-cephem-4-carboxylate], the MIC amounted to 6.25 µg/mL (≈ 8.46 µM) in test [1]; 0.2 µg/mL (≈ 0.271 µM) in test [2]; 0.1 µg/mL (≈ 0.135 µM) in test [3]; 1.56 µg/mL (≈ 2.11 µM) in test [4]; 0.39 µg/mL (≈ 0.528 µM) in test [5]; 0.39 µg/mL (≈ 0.528 µM) in test [6]. Also, the MIC in test [7] came to 0.2 µg/mL (≈ 0.271 µM).

On to `C=CCO/N=C(\C(=O)NC1C(=O)N2C(C(=O)[O-])=C(CSc3cc[n+](CC)c4cc(N5CCNCC5C)c(F)cc34)CS[C@H]12)c1csc(N)n1` (stereo partly shown) [Compound I-32, 7-[(Z)-2-(2-aminothiazol-4-yl)-2-(allyloxyimino)acetamido]-3-[1-ethyl-6-fluoro-7-(2-methylpiperazinyl)quinolinium-4-yl]thiomethyl-3-cephem-4-carboxylate], for which the “Antibacterial Activity (MIC)” value in test [1] is 0.78 µg/mL; in test [2] it was 0.39 µg/mL; in test [3], 0.39 µg/mL; in test [4], 0.78 µg/mL; in test [5], 1.56 µg/mL; in test [6], 0.39 µg/mL. For the same compound, in test [7], the “Antibacterial Activity (MIC)” value is 0.39 µg/mL.
